Source: ChEMBL document CHEMBL4507290 (2021)

Assays:
[1] = target: NUAK family SNF1-like kinase 1 (Homo sapiens) (UniProt O60285); conditions: Compound concentration 1000.0 nM
[2] = target: Cyclin-dependent kinase-like 5 (Homo sapiens) (UniProt O76039); conditions: Compound concentration 1000.0 nM
[3] = target: Dual specificity protein kinase CLK4 (Homo sapiens) (UniProt Q9HAZ1); conditions: Compound concentration 1000.0 nM
[4] = target: Macrophage colony-stimulating factor 1 receptor (Homo sapiens) (UniProt P07333); conditions: Compound concentration 1000.0 nM
[5] = target: Casein kinase I isoform alpha-like (Homo sapiens) (UniProt Q8N752); conditions: Compound concentration 1000.0 nM
[6] = target: Casein kinase I isoform gamma-2 (Homo sapiens) (UniProt P78368); conditions: Compound concentration 1000.0 nM
[7] = test system: Epidermal growth factor receptor (Homo sapiens), P00533 [L861Q]; conditions: Compound concentration 1000.0 nM
[8] = target: Ephrin type-A receptor 6 (Homo sapiens) (UniProt Q9UF33); conditions: Compound concentration 1000.0 nM
[9] = target: Ephrin type-B receptor 3 (Homo sapiens) (UniProt P54753); conditions: Compound concentration 1000.0 nM
[10] = target: Receptor tyrosine-protein kinase erbB-3 (Homo sapiens) (UniProt P21860); conditions: Compound concentration 1000.0 nM
Receptor tyrosine-protein kinase erbB-3 (Homo sapiens), sequence (P21860 whole entry): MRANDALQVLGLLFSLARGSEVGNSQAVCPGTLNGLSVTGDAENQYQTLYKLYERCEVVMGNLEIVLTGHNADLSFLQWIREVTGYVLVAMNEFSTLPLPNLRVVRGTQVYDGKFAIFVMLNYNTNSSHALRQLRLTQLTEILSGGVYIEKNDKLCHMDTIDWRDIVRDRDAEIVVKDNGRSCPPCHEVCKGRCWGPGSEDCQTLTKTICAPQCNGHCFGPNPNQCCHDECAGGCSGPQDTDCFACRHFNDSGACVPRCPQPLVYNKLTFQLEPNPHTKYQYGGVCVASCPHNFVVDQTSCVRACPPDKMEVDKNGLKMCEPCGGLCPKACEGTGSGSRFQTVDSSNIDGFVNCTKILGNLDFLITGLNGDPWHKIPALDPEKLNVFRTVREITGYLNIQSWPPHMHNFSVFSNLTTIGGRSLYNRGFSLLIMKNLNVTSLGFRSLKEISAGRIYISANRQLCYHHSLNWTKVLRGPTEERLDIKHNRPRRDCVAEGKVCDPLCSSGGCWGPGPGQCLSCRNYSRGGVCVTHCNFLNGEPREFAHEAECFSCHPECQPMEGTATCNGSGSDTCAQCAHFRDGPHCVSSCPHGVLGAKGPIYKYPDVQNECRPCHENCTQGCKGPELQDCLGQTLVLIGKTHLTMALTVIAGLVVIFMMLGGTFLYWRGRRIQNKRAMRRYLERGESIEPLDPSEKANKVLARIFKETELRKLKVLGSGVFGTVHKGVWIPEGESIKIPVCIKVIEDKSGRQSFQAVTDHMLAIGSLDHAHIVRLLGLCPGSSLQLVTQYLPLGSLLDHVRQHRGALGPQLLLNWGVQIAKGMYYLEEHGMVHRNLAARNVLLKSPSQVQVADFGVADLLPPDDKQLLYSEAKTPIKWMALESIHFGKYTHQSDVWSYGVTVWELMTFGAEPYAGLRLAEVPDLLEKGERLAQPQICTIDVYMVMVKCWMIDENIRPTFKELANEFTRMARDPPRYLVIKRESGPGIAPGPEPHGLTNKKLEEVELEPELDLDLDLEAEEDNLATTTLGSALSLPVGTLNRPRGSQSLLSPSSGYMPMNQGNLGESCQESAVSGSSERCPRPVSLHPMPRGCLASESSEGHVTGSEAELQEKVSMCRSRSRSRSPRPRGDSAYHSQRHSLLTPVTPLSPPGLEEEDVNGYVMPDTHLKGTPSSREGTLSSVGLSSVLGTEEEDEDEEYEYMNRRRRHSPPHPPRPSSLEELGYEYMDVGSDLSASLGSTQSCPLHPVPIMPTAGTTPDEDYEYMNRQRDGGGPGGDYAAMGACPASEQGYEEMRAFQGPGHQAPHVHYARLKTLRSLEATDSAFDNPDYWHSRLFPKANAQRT

[11] = target: Fibroblast growth factor receptor 2 (Homo sapiens) (UniProt P21802); conditions: Compound concentration 1000.0 nM
[12] = test system: Receptor-type tyrosine-protein kinase FLT3 (Homo sapiens), P36888 [R834Q]; conditions: Compound concentration 1000.0 nM
[13] = target: G protein-coupled receptor kinase 4 (Homo sapiens) (UniProt P32298); conditions: Compound concentration 1000.0 nM
[14] = target: Mitogen-activated protein kinase kinase kinase kinase 1 (Homo sapiens) (UniProt Q92918); conditions: Compound concentration 1000.0 nM
[15] = target: Mitogen-activated protein kinase 10 (Homo sapiens) (UniProt P53779); conditions: Compound concentration 1000.0 nM
Mitogen-activated protein kinase 10 (Homo sapiens), sequence (P53779 whole entry, the tested form may be a part): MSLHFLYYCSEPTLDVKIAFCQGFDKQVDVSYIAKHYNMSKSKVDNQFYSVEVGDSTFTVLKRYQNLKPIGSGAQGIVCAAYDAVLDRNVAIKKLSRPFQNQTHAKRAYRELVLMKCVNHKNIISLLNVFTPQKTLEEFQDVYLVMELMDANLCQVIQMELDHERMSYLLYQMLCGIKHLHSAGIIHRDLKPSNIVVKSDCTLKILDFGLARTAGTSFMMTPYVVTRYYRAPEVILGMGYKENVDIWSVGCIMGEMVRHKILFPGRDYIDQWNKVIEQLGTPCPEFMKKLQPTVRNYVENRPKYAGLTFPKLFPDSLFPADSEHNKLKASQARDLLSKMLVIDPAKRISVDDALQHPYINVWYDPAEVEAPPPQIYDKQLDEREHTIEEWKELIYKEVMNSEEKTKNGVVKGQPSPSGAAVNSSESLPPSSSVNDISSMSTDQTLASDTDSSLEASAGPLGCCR

[16] = target: LIM domain kinase 2 (Homo sapiens) (UniProt P53671); conditions: Compound concentration 1000.0 nM
[17] = target: Mitogen-activated protein kinase kinase kinase 15 (Homo sapiens) (UniProt Q6ZN16); conditions: Compound concentration 1000.0 nM
[18] = target: Mitogen-activated protein kinase kinase kinase 2 (Homo sapiens) (UniProt Q9Y2U5); conditions: Compound concentration 1000.0 nM
[19] = target: Dual specificity mitogen-activated protein kinase kinase 2 (Homo sapiens) (UniProt P36507); conditions: Compound concentration 1000.0 nM
Dual specificity mitogen-activated protein kinase kinase 2 (Homo sapiens), sequence (P36507 whole entry): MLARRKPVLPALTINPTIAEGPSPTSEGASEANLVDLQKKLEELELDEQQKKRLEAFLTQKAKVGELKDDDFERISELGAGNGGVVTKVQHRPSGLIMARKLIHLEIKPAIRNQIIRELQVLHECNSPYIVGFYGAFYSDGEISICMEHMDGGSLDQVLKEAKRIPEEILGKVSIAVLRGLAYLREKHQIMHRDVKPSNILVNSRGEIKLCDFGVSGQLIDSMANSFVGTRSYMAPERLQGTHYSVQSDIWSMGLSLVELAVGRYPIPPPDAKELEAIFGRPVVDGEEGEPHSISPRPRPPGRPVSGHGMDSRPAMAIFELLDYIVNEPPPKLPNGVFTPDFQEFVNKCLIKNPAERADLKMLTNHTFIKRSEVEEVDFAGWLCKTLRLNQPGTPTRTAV

[20] = target: Dual specificity mitogen-activated protein kinase kinase 3 (Homo sapiens) (UniProt P46734); conditions: Compound concentration 1000.0 nM
Dual specificity mitogen-activated protein kinase kinase 3 (Homo sapiens), sequence (P46734 whole entry): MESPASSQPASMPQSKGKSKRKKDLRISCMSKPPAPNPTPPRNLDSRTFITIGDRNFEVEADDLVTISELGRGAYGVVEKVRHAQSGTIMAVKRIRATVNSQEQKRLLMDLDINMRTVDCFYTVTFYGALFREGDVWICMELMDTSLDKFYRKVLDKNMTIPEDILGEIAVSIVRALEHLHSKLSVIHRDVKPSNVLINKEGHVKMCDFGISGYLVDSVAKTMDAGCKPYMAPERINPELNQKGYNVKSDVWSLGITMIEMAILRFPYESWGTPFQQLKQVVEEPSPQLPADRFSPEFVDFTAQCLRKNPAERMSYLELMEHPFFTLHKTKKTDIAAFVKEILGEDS

[21] = target: MAP kinase-interacting serine/threonine-protein kinase 2 (Homo sapiens) (UniProt Q9HBH9); conditions: Compound concentration 1000.0 nM
[22] = target: Mitogen-activated protein kinase kinase kinase 10 (Homo sapiens) (UniProt Q02779); conditions: Compound concentration 1000.0 nM
[23] = target: Myosin light chain kinase, smooth muscle (Homo sapiens) (UniProt Q15746); conditions: Compound concentration 1000.0 nM
[24] = target: Calcium-dependent protein kinase 1 (Plasmodium falciparum) (UniProt P62344); conditions: Compound concentration 1000.0 nM
[25] = target: Phosphatidylinositol 3-kinase C2 domain-containing subunit gamma (Homo sapiens) (UniProt O75747); conditions: Compound concentration 1000.0 nM
[26] = target: Protein kinase C delta type (Homo sapiens) (UniProt Q05655); conditions: Compound concentration 1000.0 nM
[27] = target: Protein kinase C epsilon type (Homo sapiens) (UniProt Q02156); conditions: Compound concentration 1000.0 nM
[28] = target: cGMP-dependent protein kinase 2 (Homo sapiens) (UniProt Q13237); conditions: Compound concentration 1000.0 nM
cGMP-dependent protein kinase 2 (Homo sapiens), sequence (Q13237 whole entry): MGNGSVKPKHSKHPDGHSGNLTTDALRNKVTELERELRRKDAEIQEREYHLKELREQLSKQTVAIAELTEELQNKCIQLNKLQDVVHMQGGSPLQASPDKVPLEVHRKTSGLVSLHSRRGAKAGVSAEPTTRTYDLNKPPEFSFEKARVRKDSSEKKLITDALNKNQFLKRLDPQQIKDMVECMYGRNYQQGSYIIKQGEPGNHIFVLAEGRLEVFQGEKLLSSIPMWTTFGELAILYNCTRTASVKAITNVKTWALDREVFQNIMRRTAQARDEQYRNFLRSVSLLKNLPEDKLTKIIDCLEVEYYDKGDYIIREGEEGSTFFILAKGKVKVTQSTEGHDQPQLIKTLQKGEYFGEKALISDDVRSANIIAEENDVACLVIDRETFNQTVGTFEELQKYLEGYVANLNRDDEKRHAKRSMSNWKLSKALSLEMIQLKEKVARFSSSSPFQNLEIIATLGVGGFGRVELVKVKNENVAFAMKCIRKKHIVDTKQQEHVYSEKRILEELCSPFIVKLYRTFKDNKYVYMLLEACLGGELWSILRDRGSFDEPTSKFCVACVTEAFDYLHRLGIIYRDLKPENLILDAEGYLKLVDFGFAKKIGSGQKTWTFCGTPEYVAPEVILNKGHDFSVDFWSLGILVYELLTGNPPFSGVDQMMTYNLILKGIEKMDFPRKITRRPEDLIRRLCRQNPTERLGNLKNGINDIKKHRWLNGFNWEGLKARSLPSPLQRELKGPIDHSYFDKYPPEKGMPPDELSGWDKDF

[29] = target: cAMP-dependent protein kinase catalytic subunit PRKX (Homo sapiens) (UniProt P51817); conditions: Compound concentration 1000.0 nM
[30] = target: Serine/threonine-protein kinase RIO1 (Homo sapiens) (UniProt Q9BRS2); conditions: Compound concentration 1000.0 nM
[31] = target: Ribosomal protein S6 kinase alpha-4 (Homo sapiens) (UniProt O75676); conditions: Compound concentration 1000.0 nM
[32] = target: Ribosomal protein S6 kinase alpha-1 (Homo sapiens) (UniProt Q15418); conditions: Compound concentration 1000.0 nM
[33] = target: Ribosomal protein S6 kinase alpha-2 (Homo sapiens) (UniProt Q15349); conditions: Compound concentration 1000.0 nM
[34] = target: Serine/threonine-protein kinase SBK1 (Homo sapiens) (UniProt Q52WX2); conditions: Compound concentration 1000.0 nM
[35] = target: Uncharacterized serine/threonine-protein kinase SBK3 (Homo sapiens) (UniProt P0C264); conditions: Compound concentration 1000.0 nM
Uncharacterized serine/threonine-protein kinase SBK3 (Homo sapiens), sequence (P0C264 whole entry): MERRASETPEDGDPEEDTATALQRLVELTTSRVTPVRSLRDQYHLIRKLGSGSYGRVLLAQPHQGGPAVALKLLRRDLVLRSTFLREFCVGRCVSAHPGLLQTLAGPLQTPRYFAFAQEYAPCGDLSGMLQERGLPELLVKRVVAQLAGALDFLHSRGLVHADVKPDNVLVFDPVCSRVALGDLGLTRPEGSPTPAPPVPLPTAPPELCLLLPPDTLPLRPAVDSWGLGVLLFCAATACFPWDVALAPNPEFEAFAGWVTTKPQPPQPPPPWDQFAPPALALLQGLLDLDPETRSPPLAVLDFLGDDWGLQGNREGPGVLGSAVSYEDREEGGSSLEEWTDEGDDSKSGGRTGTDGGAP

[36] = target: Serine/threonine-protein kinase 36 (Homo sapiens) (UniProt Q9NRP7); conditions: Compound concentration 1000.0 nM
[37] = target: Mitogen-activated protein kinase kinase kinase 7 (Homo sapiens) (UniProt O43318); conditions: Compound concentration 1000.0 nM
Mitogen-activated protein kinase kinase kinase 7 (Homo sapiens), sequence (O43318 whole entry): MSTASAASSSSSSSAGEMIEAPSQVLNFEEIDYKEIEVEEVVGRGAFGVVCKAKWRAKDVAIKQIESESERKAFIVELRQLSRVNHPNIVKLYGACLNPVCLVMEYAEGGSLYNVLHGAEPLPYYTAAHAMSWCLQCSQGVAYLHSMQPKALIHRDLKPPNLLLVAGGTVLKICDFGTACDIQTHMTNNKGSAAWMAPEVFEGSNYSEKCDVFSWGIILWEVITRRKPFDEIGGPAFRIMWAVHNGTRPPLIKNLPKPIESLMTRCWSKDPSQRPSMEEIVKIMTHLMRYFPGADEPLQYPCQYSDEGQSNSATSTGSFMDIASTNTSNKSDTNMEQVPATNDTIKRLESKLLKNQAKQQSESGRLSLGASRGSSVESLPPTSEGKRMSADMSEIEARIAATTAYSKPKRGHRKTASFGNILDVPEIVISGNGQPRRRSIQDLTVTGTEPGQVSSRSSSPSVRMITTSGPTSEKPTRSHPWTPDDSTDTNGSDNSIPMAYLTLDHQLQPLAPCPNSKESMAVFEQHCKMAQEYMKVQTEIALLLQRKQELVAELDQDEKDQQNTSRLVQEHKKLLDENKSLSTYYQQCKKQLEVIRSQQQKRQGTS

[38] = target: High affinity nerve growth factor receptor (Homo sapiens) (UniProt P04629); conditions: Compound concentration 1000.0 nM
[39] = target: Testis-specific serine/threonine-protein kinase 1 (Homo sapiens) (UniProt Q9BXA7); conditions: Compound concentration 1000.0 nM
[40] = target: Non-receptor tyrosine-protein kinase TYK2 (Homo sapiens) (UniProt P29597); conditions: Compound concentration 1000.0 nM
[41] = target: Serine/threonine-protein kinase 32A (Homo sapiens) (UniProt Q8WU08); conditions: Compound concentration 1000.0 nM
[42] = target: 5-hydroxytryptamine receptor 1B (Homo sapiens) (UniProt P28222); conditions: Compound concentration 10.0 uM
[43] = target: 5-hydroxytryptamine receptor 3A (Homo sapiens) (UniProt P46098); conditions: Compound concentration 10.0 uM
[44] = target: Sodium-dependent noradrenaline transporter (Homo sapiens) (UniProt P23975); conditions: Compound concentration 10.0 uM
[45] = target: Muscarinic acetylcholine receptor M5 (Homo sapiens) (UniProt P08912); conditions: Compound concentration 10.0 uM
Muscarinic acetylcholine receptor M5 (Homo sapiens), sequence (P08912 whole entry): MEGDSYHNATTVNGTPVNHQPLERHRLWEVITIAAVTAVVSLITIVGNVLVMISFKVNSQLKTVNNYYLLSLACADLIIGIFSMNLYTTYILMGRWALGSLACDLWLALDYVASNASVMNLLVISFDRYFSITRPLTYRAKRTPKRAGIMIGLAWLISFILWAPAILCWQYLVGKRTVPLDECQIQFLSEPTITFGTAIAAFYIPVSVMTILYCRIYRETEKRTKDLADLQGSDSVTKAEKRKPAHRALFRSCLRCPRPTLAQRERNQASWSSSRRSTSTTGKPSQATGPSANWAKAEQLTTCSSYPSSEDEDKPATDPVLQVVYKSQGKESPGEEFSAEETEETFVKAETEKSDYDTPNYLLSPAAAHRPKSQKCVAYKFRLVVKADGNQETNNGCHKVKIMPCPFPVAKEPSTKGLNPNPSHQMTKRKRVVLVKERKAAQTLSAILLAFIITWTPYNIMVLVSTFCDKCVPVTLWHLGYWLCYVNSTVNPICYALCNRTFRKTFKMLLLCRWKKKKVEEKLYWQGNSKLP

In the case of `CN([C@@H]1CCc2c(CC(=O)O)c3cc(S(C)(=O)=O)ccc3n2C1)S(=O)(=O)c1ccc(F)cc1`, the residual activity [1] is reported as 100%, the residual activity [2] is reported as 93% and the residual activity [3] is reported as 100%. It also gave a residual activity [4] of 100%, a residual activity [5] of 94% and a residual activity [6] of 100%. The residual activity [7] was 100%, the residual activity [8] was 91% and the residual activity [9] was 90%. The residual activity [10] was 100%, the residual activity [11] was 89% and the residual activity [12] was 100%. It also gave a residual activity [13] of 100%, a residual activity [14] of 100% and a residual activity [15] of 100%. It also gave a residual activity [16] of 100%, a residual activity [17] of 93% and a residual activity [18] of 89%. It also gave a residual activity [19] of 95%, a residual activity [20] of 88% and a residual activity [21] of 100%. It also gave a residual activity [22] of 100%, a residual activity [23] of 94% and a residual activity [24] of 75%. The residual activity [25] was 82%, the residual activity [26] was 100% and the residual activity [27] was 87%. For the same molecule, the residual activity [28] was 95%, the residual activity [29] was 100% and the residual activity [30] was 100%. For the same molecule, the residual activity [31] was 100%, the residual activity [32] was 100% and the residual activity [33] was 100%. For the same molecule, the residual activity [34] was 100%, the residual activity [35] was 49% and the residual activity [36] was 98%. The residual activity [37] was 100%, the residual activity [38] was 100% and the residual activity [39] was 100%. It also gave a residual activity [40] of 100%, a residual activity [41] of 100% and an inhibition [42] of 2.6%. The inhibition [43] was -2.99%, the inhibition [44] was 22.4% and the inhibition [45] was -6.18%.
Molecule `CN([C@@H]1CCc2c(CC(=O)O)c3ccccc3n2C1)S(=O)(=O)c1ccc(F)cc1` [MK-7246] has a residual activity [1] of 100%, a residual activity [2] of 74% and a residual activity [3] of 100%. For the same molecule, the residual activity [4] was 100%, the residual activity [5] was 100% and the residual activity [6] was 100%. For the same molecule, the residual activity [7] was 100%, the residual activity [8] was 91% and the residual activity [9] was 88%. For the same molecule, the residual activity [10] was 100%, the residual activity [11] was 80% and the residual activity [12] was 100%. For the same molecule, the residual activity [13] was 100%, the residual activity [14] was 100% and the residual activity [15] was 100%. For the same molecule, the residual activity [16] was 100%, the residual activity [17] was 100% and the residual activity [18] was 100%. For the same molecule, the residual activity [19] was 76%, the residual activity [20] was 84% and the residual activity [21] was 100%. For the same molecule, the residual activity [22] was 100%, the residual activity [23] was 100% and the residual activity [24] was 90%. It also gave a residual activity [25] of 95%, a residual activity [26] of 100% and a residual activity [27] of 94%. It also gave a residual activity [28] of 100%, a residual activity [29] of 100% and a residual activity [30] of 100%. It also gave a residual activity [31] of 100%, a residual activity [32] of 100% and a residual activity [33] of 100%. It also gave a residual activity [34] of 100%, a residual activity [35] of 100% and a residual activity [36] of 100%. The residual activity [37] was 100%, the residual activity [38] was 100% and the residual activity [39] was 100%. It also gave a residual activity [40] of 100%, a residual activity [41] of 100% and an inhibition [42] of 35.6%. For the same molecule, the inhibition [43] was -3.85%, the inhibition [44] was 23.8% and the inhibition [45] was 6.97%.
